# Publication PMC6127852 (Journal of Enzyme Inhibition and Medicinal Chemistry, 2018)
# Legend:
# E. coli ESBL = assay: Broth microdilution MIC, ESBL E. coli clinical strain; type: cell-based; settings: Escherichia coli
# E. coli ATCC 25925 = assay: Broth microdilution MIC, E. coli ATCC 25925; type: cell-based; settings: Escherichia coli, ATCC25925; Table S2
# Protocol: (§1) The compounds were evaluated for their in vitro anti-bacterial activity against Gram-positive bacteria: S. aureus (ATCC 25923), MRSA, methicillin-sensitive S. aureus (MSSA), E. faecalis, vancomycin-resistant E. faecium (VREF), and Gram-negative bacteria: E. coli (ATCC 25925), P. aeruginosa (ATCC 27853), A. baumannii (ATCC 19606) and ESBL-producing K. pneumoniae (ATCC 27736). Standard broth microdilution method as recommended in guidelines of Clinical and Laboratory Standards Institute[61] ^, [65] ^, [66] was applied and the minimum inhibitory concentration (MIC) of compounds was tested. In short, testing was performed in U-bottomed 96-well sterile plastic microdilution trays (Falcon 3077, Becton Dickinson Labware, Franklin Lakes, NJ) in cation (Ca^2+ and Mg^2+) adjusted Mueller–Hinton broth medium (Becton Dickinson and Co., Cockeysville, MD). All testings were performed in triplicate.
# (§2) The in vitro anti-bacterial activity of 5-amidinobenzimidazoles 7a–7e, 8a–8e, and 9a–9e was tested against Gram-positive bacteria including S. aureus (ATCC 25923), Enterococcus faecalis (ATCC 29212), and Gram-negative bacteria including E. coli (ATCC 25925), K. pneumoniae (ATCC 700803), P. aeruginosa (ATCC 27853), and Acinetobacter baumannii (ATCC 19606).
# K. pneumoniae ESBL = assay: Broth microdilution MIC, ESBL K. pneumoniae clinical strain; type: cell-based; settings: Klebsiella pneumoniae
# Protocol: as §1
# P. aeruginosa ESBL = assay: Broth microdilution MIC, ESBL P. aeruginosa clinical strain; type: cell-based; settings: Pseudomonas aeruginosa
# P. aeruginosa ATCC 27853 = assay: Broth microdilution MIC, P. aeruginosa ATCC 27853; type: cell-based; settings: Pseudomonas aeruginosa, ATCC27853; Table S2
# Protocol: as §1, §2
# A. baumannii ATCC 19606 = assay: Broth microdilution MIC, A. baumannii ATCC 19606; type: cell-based; settings: Acinetobacter baumannii, ATCC19606; Table S2
# Protocol: as §1, §2
# polyA-polyU [1] = assay: UV–Vis titration with polyA-polyU (Scatchard); type: binding; settings: PBS, pH 7
# Protocol: (§3) Polynucleotides were purchased as follows: polyG–polyC, polyA–polyU (Sigma-Aldrich, St. Louis, MO), calf thymus ctDNA (Aldrich). Polynucleotides were dissolved in PBS buffer, I = 0.05 mol dm^−3, pH 7.0. The calf thymus ctDNA was additionally sonicated and filtered through a […] filter. The polynucleotide concentration was spectroscopically determined as the concentration of nucleobases.
# (§4) All UV–Vis absorbance measurements were conducted on a Perkin Elmer Lambda 25 spectrophotometer (Perkin Elmer, Waltham, MA). A quartz cell with a 1 cm path length was used for all absorbance studies. Compound stock solutions were 1 mM. The DNA/RNA at increasing ratios was then titrated into the compound buffer solution (1.48 × 10^−5 mol dm^−3) and the corresponding absorption spectra were recorded under the same conditions. All data were graphed and analysed using Origin software version 9.0 (OriginLab Corporation, Northampton, MA). The stability constants (Ks) and [bound compound]/[polynucleotide phosphate] ratios (n) were calculated according to the Scatchard Equation[63] ^, [64]. Values for Ks and n given in Table 1 all have satisfying correlation coefficients (0.99).
# (§5) The binding constants logKs and the density of the binding sites n were calculated using Scatchard plot analysis. In addition, the binding constants Ks for compounds 8b and 8e were calculated only for titration data taken at the r ≥ 0.1, because below that ratio changes in absorption maxima were too small for accurate calculation (ΔA ≤ 0.04) (Table 1). The binding constants Ks and ratios n obtained by processing UV–Vis titration data using the Scatchard equation are summarised in Table 1.
# [2] = tested on: polyG-polyC (polyC-polyG) (RNA, polymer) G/C; assay: UV-Vis titration, Scatchard; settings: PBS, I = 0.05 M (Table 1 says I = 0.015 M), cations not specified, I = 0.015 M (Methods: 0.05 M), pH 7, per base
# S. aureus MSSA = assay: Broth microdilution MIC, MSSA clinical strain; type: cell-based; settings: Staphylococcus aureus
# Protocol: as §1
# [3] = tested on: polyA-polyU (RNA, polymer) A/U; assay: UV-Vis titration, Scatchard; settings: PBS, I = 0.05 M (Table 1 says I = 0.015 M), cations not specified, I = 0.015 M (Methods: 0.05 M), pH 7, per base
# S. aureus ATCC 25923 = assay: Broth microdilution MIC, S. aureus ATCC 25923; type: cell-based; settings: Staphylococcus aureus, ATCC25923; Table S2
# Protocol: as §1, §2
# calf thymus ctDNA = assay: UV–Vis titration with ctDNA (Scatchard); type: binding; settings: PBS, pH 7
# Protocol: as §3, §4, §5
# ctDNA = assay: Thermal melting (ΔTm) of ctDNA; type: binding, calf; settings: PBS, pH 7
# Protocol: (§6) T m experiments were conducted with a Perkin Elmer Lambda 25 spectrophotometer in 1 cm quartz cuvettes. The absorbance of the DNA/RNA-compound complex was monitored at 260 nm as a function of temperature. The absorbance of the ligands was subtracted from every curve, and the absorbance scale was normalised. The ΔT m values were calculated by subtracting T m of the free nucleic acid from T m of the complex. Every reported ΔT m value was the average of at least two measurements. The error of ΔT m is ±0.5 °C. All data were graphed and analysed using Origin software version 9.0.
# (§7) Denaturation experiments were carried out at different amounts of the compounds (r = 0.1, 0.3, 0.5, and 0.7 eq; r = [compound]/[polynucleotide]) with ctDNA and polyA-polyU.
# S. aureus MRSA = assay: Broth microdilution MIC, MRSA clinical strain; type: cell-based; settings: Staphylococcus aureus, antibiotic-resistant clinical strain
# Protocol: as §1
# K. pneumonia ATCC 700803 = assay: Broth microdilution MIC, K. pneumoniae ATCC 700803; type: cell-based; settings: Klebsiella pneumoniae, ATCC700803; Table S2
# Protocol: as §1, §2
# E. faecium VRE = assay: Broth microdilution MIC, VRE clinical strain; type: cell-based; settings: Enterococcus faecium
# Protocol: as §1
# polyC-polyG = assay: UV–Vis titration with polyC-polyG (Scatchard); type: binding; settings: binding constant, Scatchard, PBS, pH 7
# Protocol: as §3, §4, §5
# [4] = tested on: bloodstream form T. brucei (strain 221); assay: Anti-trypanosomal screening, resazurin; type: cell-based; settings: Trypanosoma brucei, mean of triplicate ± SEM
# Protocol: Bloodstream form T. brucei (strain 221) were cultured in modified Iscove’s medium, as outlined[67] and trypanocidal assays were performed using 96-well microtitre plates. […] Resazurin was added after 48 h, the plates incubated for a further 16 h, and then read in a Spectramax plate reader (Molecular Devices Corporation, San Jose, CA). The data were analysed using GraphPad Prism (GraphPad, La Jolla, CA). Each drug concentration was tested in triplicate.
# E. faecalis ATCC 29212 = assay: Broth microdilution MIC, E. faecalis ATCC 29212; type: cell-based; settings: Enterococcus faecalis, ATCC29212; Table S2
# Protocol: as §1, §2
# polyA-polyU [5] = assay: Thermal melting (ΔTm) of polyA-polyU; type: binding
# Protocol: as §6, §7
# [6] = tested on: polyA-polyU (RNA, polymer) A/U; assay: UV melting at 260 nm; settings: PBS, I = 0.05 M, cations not specified, pH 7, r = 0.3 [compound]/[polynucleotide], error ±0.5, per base
# [7] = UV–Vis titration, calculated by Scatchard equation
structure (smiles),measurement,setting,value
"CC(C)(O/N=C(\C(=O)N[C@@H]1C(=O)N2C(C(=O)[O-])=C(C[n+]3ccccc3)CS[C@H]12)c1csc(N)n1)C(=O)O [Ceftazidime, ceftazidime, reference compound]",MIC,E. coli ESBL,8 µg/mL
same,MIC,E. coli ATCC 25925,0.5 µg/mL
same,MIC,K. pneumoniae ESBL,> 128 µg/mL
same,MIC,P. aeruginosa ESBL,32 µg/mL
same,MIC,P. aeruginosa ATCC 27853,4 µg/mL
N=C(N)c1ccc2[nH]c(-c3ccc(OCc4cn(Cc5ccccc5)nn4)cc3)nc2c1 [Compound 7d],MIC,E. coli ESBL,16 µg/mL
same,MIC,E. coli ATCC 25925,32 µg/mL
same,MIC,A. baumannii ATCC 19606,> 256 µg/mL
same,MIC,K. pneumoniae ESBL,16 µg/mL
same,"Hypochromic effect H/%, polyA-polyU",polyA-polyU [1]; [7],32.5%
same,"log Ks, polyA-polyU","polyA-polyU [1]; binding constant, Scatchard",5.94
same,log Ks,[2],6.56
same,MIC,S. aureus MSSA,32 µg/mL
same,log Ks,[3],5.94
same,MIC,S. aureus ATCC 25923,32 µg/mL
same,"Hypochromic effect H/%, ctDNA",calf thymus ctDNA; [7],40.4%
same,"log Ks, ctDNA","calf thymus ctDNA; binding constant, Scatchard",5.78
same,"ΔTm, ctDNA, r = 0.5",ctDNA; r = 0.5,3.86 °C
same,"ΔTm, ctDNA, r = 0.7",ctDNA; r = 0.7,3.62 °C
same,"ΔTm, ctDNA, r = 0.3","ctDNA; r = [compound]/[polynucleotide] 0.3, error ±0.5 °C",3.12 °C
same,MIC,S. aureus MRSA,16 µg/mL
same,MIC,K. pneumonia ATCC 700803,64 µg/mL
same,MIC,P. aeruginosa ESBL,32 µg/mL
same,MIC,P. aeruginosa ATCC 27853,32 µg/mL
same,MIC,E. faecium VRE,32 µg/mL
same,"log Ks, polyC-polyG",polyC-polyG,6.56
same,IC50,[4],12.9 ± 0.2 µM
same,IC90,[4],18.2 ± 1 µM
same,MIC,E. faecalis ATCC 29212,64 µg/mL
same,"ΔTm, polyA-polyU, r = 0.1","polyA-polyU [5]; r = 0.1, PBS, pH 7",2.06 °C
same,"ΔTm, polyA-polyU, r = 0.3","polyA-polyU [5]; r = 0.3, first melting midpoint",1.14 °C
same,ΔTm,[6],1.14 °C
